According to ChEMBL document CHEMBL1144970, “Protective effects of steroid saponins from Paris polyphylla var. yunnanensis on ethanol- or indomethacin-induced gastric mucosal lesions in rats: structural requirement for activity and mode of action” (Bioorg Med Chem Lett, 2003):

Tests used:
Rattus norvegicus [1] = experiment: Reduction in length (control value = 59.8+/-6) of gastric lesions induced by endomethacin was measured, after administration of 5 mg/kg po in rats; assay type: functional, Stomach
Rattus norvegicus [2] = experiment: Acid output from the stomach (control value = 120.3+/-19.7) in pylorus ligated rats (20 mg/kg po of the Compound was administered 1 hr before the pylorus ligation); assay type: functional
Rattus norvegicus [3] = experiment: Volume of the gastric juice (Control value = 4.7+/-0.4) of stomach content of pylorus ligated rats was measured (20 mg/kg po of the Compound was administered 1 hr before the pylorus ligation); assay type: functional
Rattus norvegicus [4] = experiment: Percent inhibition of gastric lesions induced by endomethacin was measured, after administration of 5 mg/kg po in rats; assay type: functional; settings: Stomach
Rattus norvegicus [5] = experiment: pH of the gastric juice (Control value = 1.42+/-0.02) of stomach content of pylorus ligated rats was measured (10 mg/kg po of the Compound was administered 1 hr before the pylorus ligation); assay type: ADME, organism-based; settings: in vivo
Rattus norvegicus [6] = experiment: Reduction in length (control value = 159.2+/-21) of gastric lesions induced by ethanol was measured, after administration of 15 mg/kg po in rats; assay type: functional, Stomach
Rattus norvegicus [7] = experiment: Percent inhibition of gastric lesions induced by endomethacin was measured, after administration of 7.5 mg/kg po in rats; assay type: functional; settings: Stomach
Rattus norvegicus [8] = experiment: Acid output from the stomach (control value = 120.3+/-19.7) in pylorus ligated rats (5 mg/kg po of the Compound was administered 1 hr before the pylorus ligation); assay type: functional
Rattus norvegicus [9] = experiment: Percent inhibition of gastric lesions induced by endomethacin was measured, after administration of 10 mg/kg po in rats; assay type: functional; settings: Stomach
Rattus norvegicus [10] = experiment: Acid output from the stomach (control value = 120.3+/-19.7) in pylorus ligated rats (10 mg/kg po of the Compound was administered 1 hr before the pylorus ligation); assay type: functional
Rattus norvegicus [11] = experiment: Volume of the gastric juice (Control value = 4.7+/-0.4) of stomach content of pylorus ligated rats was measured (5 mg/kg po of the Compound was administered 1 hr before the pylorus ligation); assay type: functional
Rattus norvegicus [12] = experiment: Percent inhibition of gastric lesions induced by ethanol was measured, after administration of 10 mg/kg po in rats; assay type: functional; settings: Stomach
Rattus norvegicus [13] = experiment: pH of the gastric juice (Control value = 1.42+/-0.02) of stomach content of pylorus ligated rats was measured (5 mg/kg po of the Compound was administered 1 hr before the pylorus ligation); assay type: ADME, organism-based; settings: in vivo
Rattus norvegicus [14] = experiment: Percent inhibition of gastric lesions induced by endomethacin was measured, after administration of 2.5 mg/kg po in rats; assay type: functional; settings: Stomach
Rattus norvegicus [15] = experiment: Reduction in length (control value = 159.2+/-21) of gastric lesions induced by endomethacin was measured, after administration of 20 mg/kg po in rats; assay type: functional, Stomach
Rattus norvegicus [16] = experiment: Reduction in length (control value = 59.8+/-6) of gastric lesions induced by endomethacin was measured, after administration of 7.5 mg/kg po in rats; assay type: functional, Stomach
Rattus norvegicus [17] = experiment: Percent inhibition of gastric lesions induced by ethanol was measured, after administration of 15 mg/kg po in rats; assay type: functional; settings: Stomach
Rattus norvegicus [18] = experiment: Percent inhibition of gastric lesions induced by ethanol was measured, after administration of 20 mg/kg po in rats; assay type: functional; settings: Stomach
Rattus norvegicus [19] = experiment: Reduction in length (control value = 59.8+/-6) of gastric lesions induced by endomethacin was measured, after administration of 2.5 mg/kg po in rats; assay type: functional, Stomach
Rattus norvegicus [20] = experiment: Reduction in length (control value = 159.2+/-21) of gastric lesions induced by ethanol was measured, after administration of 10 mg/kg po in rats; assay type: functional, Stomach
Rattus norvegicus [21] = experiment: Volume of the gastric juice (Control value = 4.7+/-0.4) of stomach content of pylorus ligated rats was measured (10 mg/kg po of the Compound was administered 1 hr before the pylorus ligation); assay type: functional
Rattus norvegicus [22] = experiment: pH of the gastric juice (Control value = 1.42+/-0.02) of stomach content of pylorus ligated rats was measured (20 mg/kg po of the Compound was administered 1 hr before the pylorus ligation); assay type: ADME, organism-based; settings: in vivo

**Q.** Which results are given for `COc1ccc2[nH]c([S+]([O-])Cc3ncc(C)c(OC)c3C)nc2c1` (configuration not stated) [OMEPRAZOLE]?
**A.** Length (Rattus norvegicus [1]): 24.6 mm; Acid output (Rattus norvegicus [2]): 14.6 u equiv hr-1; Volume (Rattus norvegicus [3]): 2.2 ml 4hr-1; inhibition in vivo at 5 mg/kg (Rattus norvegicus [4]): 58.9%; pH (Rattus norvegicus [5]): 1.8; Length (Rattus norvegicus [6]): 28.6 mm; inhibition in vivo at 7.5 mg/kg (Rattus norvegicus [7]): 86.6%; Acid output (Rattus norvegicus [8]): 62.6 u equiv hr-1; inhibition in vivo at 10 mg/kg (Rattus norvegicus [9]): 98.2%; Acid output (Rattus norvegicus [10]): 46.8 u equiv hr-1; Volume (Rattus norvegicus [11]): 3.3 ml 4hr-1; inhibition in vivo at 10 mg/kg (Rattus norvegicus [12]): 43.1%; pH (Rattus norvegicus [13]): 1.63; inhibition in vivo at 2.5 mg/kg (Rattus norvegicus [14]): 42.5%; Length (Rattus norvegicus [15]): 16.9 mm; Length (Rattus norvegicus [16]): 8 mm; inhibition in vivo at 15 mg/kg (Rattus norvegicus [17]): 82%; inhibition in vivo at 20 mg/kg (Rattus norvegicus [18]): 89.4%; Length (Rattus norvegicus [19]): 34.4 mm; Length (Rattus norvegicus [20]): 90.6 mm; Volume (Rattus norvegicus [21]): 2.5 ml 4hr-1; pH (Rattus norvegicus [22]): 5.54
